Results from patent US20160158376A1 (priority 2013, published 2016).
Read-outs that look alike come from different tables or passages of the source.

What was measured:
[1] = Solubility assay of the polyconjugate; assay type: physicochemical; settings: water, room temperature (22˜25° C.), as active drug
Candida albicans = assay: Pharmacodynamic assay, immunodepleted mice infected with Candida albicans; assay type: in vivo; settings: for Number of animal death: mice (20 per group), tail vein, day 7
Excerpt: Method: Mice whose immunity was depleted by conventional method (white cell count≦100) were infected with Candida albicans, and randomly divided into eight groups, 20 per group. Mice received the treatment outlined in the following table by injection through the tail vein. […] Continuously monitoring animal survival for seven days, and counting the number of dead mice on day 7.

[2] = rat, cited from earlier work
[3] = mouse; Proffitt et al. 1991; cited from earlier work
[4] = cited from earlier work

amphotericin B-hydroxyethyl starch polyconjugate [Preparation 22]
solubility (amount of the soluble active drug) [1]: 0.026%

CC1O[C@@H](O[C@H]2/C=C/C=C/C=C/C=C/C=C/C=C/C=C/[C@H](C)[C@@H](O)[C@@H](C)[C@H](C)OC(=O)C[C@H](O)C[C@H](O)CC[C@@H](O)[C@H](O)C[C@H](O)C[C@]3(O)C[C@H](O)[C@@H](C(=O)O)[C@H](C2)O3)C(O)C(N)[C@@H]1O (stereo partly drawn) [amphotericin B]
Number of animal death (Candida albicans; 1 mg/kg as amphotericin B): 10 dead
Number of animal death (Candida albicans; 2 mg/kg as amphotericin B): 3 dead
50% effective dose (Candida albicans; mice infected with Candida albicans, survival at day 7, as amphotericin B): about 1 mg/kg
LD50 ([2]; intravenous, Pfizer material safety data sheet): 1.6 mg/kg
LD50 ([2]; Proffitt et al. 1991): 1.6 mg/kg
LD50 [3]: 2.3 mg/kg
solubility in water [4]: insoluble

poly-aspartic acid-amphotericin B polyconjugate [Preparation 1]
Number of animal death (Candida albicans; 0.25 mg/kg as amphotericin B): 5 dead
Number of animal death (Candida albicans; 0.5 mg/kg as amphotericin B): 0 dead
Number of animal death (Candida albicans; 1 mg/kg as amphotericin B): 0 dead
Number of animal death (Candida albicans; 2 mg/kg as amphotericin B): 0 dead
